In paper PMC5302928, “[^64Cu]XYIMSR-06: A dual-motif CAIX ligand for PET imaging of clear cell renal cell carcinoma” (Oncotarget, 2016):
Read-outs that look alike come from different tables or passages of the source.

Experiments:
[1] = target: T1, CAIX (Homo sapiens, UniProt Q16790); assay: Competitive fluorescence polarization assay with FITC-labeled dual-motif ligand; details: 100 nM CAIX, 80 nM FITC-labeled ligand; read-out: IC50 (binding to CAIX, fluorescence polarization)
T1 construct: purchased R&D Systems (Minneapolis, MN)
Procedure: Fluorescence polarization (FP) experiments were performed in 21 μL of the assay buffer (12.5 mM Tris-HCl, pH 7.5, 75 mM NaCl) in transparent flat bottom 384 well Small Volume™ LoBase Microplates (Greiner Bio-One, Frickenhausen Germany). The FP reaction employed 100 nM of purified CAIX (R&D systems, Minneapolis, MN) and 80 nM FITC-labeled ligand within the assay buffer. The FP values were measured as mP units using the Safire2™ plate reader (Tecan, Morrisville, NC) with excitation at 475 nm and emission at 532 nm emission. 100 nM CAIX was incubated with serially diluted (from 8 μM to […]) concentrations of the three targeting molecules, 1 and [^63/65Cu]XYIMSR-06 for 30 min at room temperature in 384 well plates. 80 nM FITC-labeled ligand was added to each well and the reaction was incubated for 30 min at room temperature followed by FP measurements. Experiments were carried out in triplicate and the concentration resulting in 50% response (IC50) was calculated in GraphPad Prism 5 (GraphPad Software, La Jolla, CA) using the sigmoidal dose-response regression function. […]
amino)butyl)-1H-1,2,3-triazol-1-yl)butyl)-6,9-dioxa- (FP) assay as described in the experimental section. The 3,12,15,19,23-pentaazaoctacosyl)-1,4,7-triazonane-1,4- IC50 values determined for dual motif precursor 1 (Figure diyl)diacetic acid ([Al19F]XYIMSR-04) . […]
eluded at 35.5 min. MS, calculated for C H AlFN N Heart, lungs, pancreas, spleen, fat, brain, muscle, small […]
and tumor were collected. Each organ was weighed and Radiosynthesis the tissue radioactivity was measured with an automated gamma counter (1282 Compugamma CS, Pharmacia/
For convenience, Na18F in saline purchased from LKBNuclear, Inc., Mt. […] Due to was calculated by comparison with samples of a standard […]
Radiosynthesis of [Al18F]XYIMSR-04. 400μg of Data were expressed as mean ± standard deviation XYIMSR-04 in 200 μL water/Ethanol 1:1 was added to (SD). […] To this mixture, 20 μL of 2 mM AlCl3/NaOAc significance was calculated using a paired t test. […]

[2] = target: T1, CAIX; design: method as in PMID 26418876; details: positive control, reported value; read-out: IC50 (binding to CAIX, same method); cited from earlier work

| SMILES | IC50 [1] | IC50 [2] |
| --- | --- | --- |
| CC(CCC(=O)N[C@@H](CC(=O)N[C@@H](CC(=O)N[C@@H](CCCCn1cc(CCCC(=O)Nc2nnc(S(N)(=O)=O)s2)nn1)C(=O)NCCOCCOCCNC(=O)C[N+]12CC[N+]34CC[N+]5(CC1)CC(=O)[O][Al-3]235([F])[O]C(=O)C4)C(=O)O)C(=O)O)(c1ccc(O)cc1)c1ccc(O)cc1 (stereo partly shown) [[Al^19F]XYIMSR-04] | 96.7 ± 3.3 nM | – |
| CC(CCC(=O)N[C@@H](CC(=O)N[C@@H](CC(=O)N[C@@H](CCCCn1cc(CCCC(=O)Nc2nnc(S(N)(=O)=O)s2)nn1)C(=O)NCCOCCOCCNC(=S)Nc1ccc(CC2CN3CCN(CCN2CC(=O)O)CC(=O)[O][Cu][O]C(=O)C3)cc1)C(=O)O)C(=O)O)(c1ccc(O)cc1)c1ccc(O)cc1 (stereo partly drawn) [[^63/65Cu]XYIMSR-06, 2,2′,2″-(2-(4-(3-((11S,15S,19S)-15,19-Dicarboxy-24,24-bis(4-hydroxyphenyl)-10,13,17,21-tetraoxo-11-(4-(4-(4-oxo-4-((5-sulfamoyl-1,3,4-thiadiazol-2-yl)amino)butyl)-1H-1,2,3-triazol-1-yl)butyl)-3,6-dioxa-9,12,16,20-tetraazapentacosyl)thioureido)benzyl)-1,4,7-triazonane-1,4,7-triyl)triacetic acid] | 156 ± 4.3 nM | – |
| CC(CCC(=O)NC(CC(=O)NC(CC(=O)NC(CCCCn1cc(CCCC(=O)Nc2nnc(S(N)(=O)=O)s2)nn1)C(=O)NCCOCCOCCN)C(=O)O)C(=O)O)(c1ccc(O)cc1)c1ccc(O)cc1 (stereo not shown) [Compound 1, reference compound] | 63.6 ± 2.8 nM | 75.9 nM |
